Results on two compounds are retold here after publication PMC5145814 (Molecular Cell, 2016).

For test [1], the target named is T1, RFS-1/RIP-1 (Caenorhabditis elegans, UniProt P34348).
T1 sequence (P34348 1-245): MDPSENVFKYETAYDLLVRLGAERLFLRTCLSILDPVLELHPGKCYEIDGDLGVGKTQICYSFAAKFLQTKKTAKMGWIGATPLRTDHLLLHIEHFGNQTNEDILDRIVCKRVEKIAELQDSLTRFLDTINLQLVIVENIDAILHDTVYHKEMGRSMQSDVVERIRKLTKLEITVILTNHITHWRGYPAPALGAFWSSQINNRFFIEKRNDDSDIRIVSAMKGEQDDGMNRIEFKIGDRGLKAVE
T1 sequence (Q21621 1-209 partner): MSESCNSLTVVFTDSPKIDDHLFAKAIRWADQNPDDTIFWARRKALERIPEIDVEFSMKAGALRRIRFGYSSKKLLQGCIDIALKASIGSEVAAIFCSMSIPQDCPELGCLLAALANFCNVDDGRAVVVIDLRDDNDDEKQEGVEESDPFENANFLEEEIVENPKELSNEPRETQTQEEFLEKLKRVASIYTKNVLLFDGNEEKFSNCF
The test is described as follows: stopped-flow Cy3 fluorescence, binding to RAD-51-ssDNA filament […]' end. Type of test: biochemical. As to conditions: 25°C; 50 nM RFS-1/RIP-1 pre-incubated with ADP; 1 μM RAD-51, 15 nM 5'-Cy3-43-mer.

Test [2] deals with T2, RAD-51 (Caenorhabditis elegans, UniProt G5EGG8).
T2 sequence (G5EGG8 1-357): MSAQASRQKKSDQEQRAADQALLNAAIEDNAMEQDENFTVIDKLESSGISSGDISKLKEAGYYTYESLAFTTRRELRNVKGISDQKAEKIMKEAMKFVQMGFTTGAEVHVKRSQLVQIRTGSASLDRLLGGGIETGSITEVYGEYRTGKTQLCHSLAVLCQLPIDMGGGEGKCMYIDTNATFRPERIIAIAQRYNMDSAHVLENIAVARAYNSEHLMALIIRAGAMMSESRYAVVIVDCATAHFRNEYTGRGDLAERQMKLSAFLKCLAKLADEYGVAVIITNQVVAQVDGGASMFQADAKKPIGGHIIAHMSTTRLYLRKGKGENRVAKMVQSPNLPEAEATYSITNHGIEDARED
The test is described as follows: fluorescence titration, fixed TNP-ATP concentration. Type of test: binding. As to conditions: 25°C; fluorescent ATP analog; labelled compound.

For the compound `Nc1ncnc2c1ncn2[C@@H]1O[C@H](COP(=O)(O)OP(=O)(O)O)[C@@H](O)[C@H]1O` [ADP], the “Δ Cy3 fluorescence” value in test [1] was “RFS-1/RIP-1 was pre-incubated with ADP (Figures 5C and 5D)”. As to TNP-ATP, in test [2], the Kd was around 3.5 µM.
